According to patent publication US20070105810A1, “THERAPEUTICS” (priority 2003, published 2007):

Experiments:
OVA-specific T cells = assay: Proliferation of cultured OVA-specific T cells; assay type: cell-based
[1] = system: T cell receptor/CD3 complex mediated Ca2+ signalling; assay: T cell receptor/CD3 complex mediated Ca2+ signalling in human T cells; assay type: cell-based
Description: Intact Jurkat T-lymphocytes were loaded with fura2/AM. Ratiometric determination of [Ca^2+]i was carried out in cell suspension in a Hitachi F2000 fluorometer at room temperature at excitation wavelengths of 340 and 380 nm (alternating) and an emission wavelength of 495 nm. Each experiment was calibrated by addition of Triton X100 (10% v/v final concentration) to obtain the maximal ratio and subsequent addition of 4 mM EGTA/40 mM Tris-base to obtain the minimal ratio.
[Ca^2+]i was measured by using the fluorescent indicator Fura2/AM. In brief, 10^7 cells were loaded with Fura2/AM, and fluorescence was determined in batches of 1.5×10^6 cells with an Hitachi F-2000 fluorimeter at excitation and emission wavelengths of 340 and 380 nm (exc.) and 505 nm (em.), respectively. Measurements were carried out at 20° C. At the end of each single measurement maximal and minimal ratios were determined by addition of Triton X-100 and EGTA/Tris.

[2] = Tolerability of intraperitoneal injection in Lewis rats; assay type: in vivo
Excerpt: Limited solubility of BZ194 excluded intravenous application due to embolic complications.

**Q.** Which results are given for `CCCCCCCCNC(=O)C[n+]1cccc(C(=O)O)c1.[Br-]` [BZ194, 3-Carboxy-1-Octylcarbamoylmethyl-Pyridinium]?
**A.** proliferation (OVA-specific T cells): anti-proliferative effect; TCR/CD3 complex mediated Ca2+ signalling [1]: partially blocked; adverse effect ([2]; higher amounts of BZ194 i.p.): occasionally induced peritonitis; tolerability (inspection, weight development, immune cell count) ([2]; i.p., solubilized in DMSO, 180 mg/kg, 5 days): well tolerated
